Test results taken from the CheMixHub viscosity set.

Assay: xn = mol fraction of the nth substance listed

CC(C)(C)C(=O)O + CCCN(CCC)CCC
viscosity [mPa·s], 101 kPa
Conditions	293.15 K	298.15 K	303.15 K	308.15 K	313.15 K	318.15 K	323.15 K
x1 = 0.1	1.239	1.113	1.09	1.007	0.961	–	–
x1 = 0.2	1.593	1.416	1.371	1.265	1.163	1.088	1.017
x1 = 0.3	1.998	1.897	1.631	1.619	1.474	1.375	1.285
x1 = 0.4	3.304	2.795	2.479	2.325	2.14	1.94	1.79
x1 = 0.5	5.525	4.857	3.946	3.56	3.069	2.62	2.72
x1 = 0.6	14.34	11.43	9.15	7.47	6.17	5	4.15
x1 = 0.7	41.75	29.64	21.72	16.62	12.77	10.24	8.33
x1 = 0.725	62.84	43.6	31.12	22.68	17.62	14.04	11.21
x1 = 0.75	69.2	52.11	39.98	28.77	21.17	17.53	13.24
x1 = 0.8	54.33	40.03	28.38	21.17	16.84	13.12	10.81
x1 = 0.9	15.35	11.96	9.46	7.88	6.57	5.51	4.73

O=CN1CCOCC1 + CCc1ccccc1
298.15 K, 101.3 kPa
Conditions	viscosity [mPa·s]
x2 = 0.03224	6.848
x2 = 0.06252	6.122
x2 = 0.08602	5.678
x2 = 0.1584	4.43
x2 = 0.2704	3.151
x2 = 0.3512	2.527
x2 = 0.4701	1.841
x2 = 0.5569	1.511
x2 = 0.6373	1.261
x2 = 0.6888	1.137
x2 = 0.7771	0.986
x2 = 0.8636	0.829
x2 = 0.9317	0.713

CC(C)NC(C)C + CNC(C)=O
308.15 K, 101 kPa
Conditions	viscosity [mPa·s]
x2 = 0.0739	0.3617
x2 = 0.2151	0.5132
x2 = 0.3226	0.7392
x2 = 0.4754	1.069
x2 = 0.6497	1.625
x2 = 0.786	2.167
x2 = 0.8761	2.652
x2 = 0.9277	2.973
x2 = 0.9762	3.194

C=CCN=C=S + CCN(CC)c1ccccc1
303.15 K, 101 kPa
Conditions	viscosity [mPa·s]
x1 = 0.25	1.248
x1 = 0.5	1.007
x1 = 0.7	0.857
x1 = 0.75	0.822
x1 = 0.8	0.785

S=C=S + c1ccccc1
298.15 K, 101 kPa
Conditions	viscosity [mPa·s]
x2 = 0.08675	0.376
x2 = 0.3427	0.446
x2 = 0.7541	0.544

CC(O)CN(CC(C)O)CC(C)O (configuration not stated) + O
viscosity [mPa·s], 101 kPa
Conditions	303.15 K	313.15 K	318.15 K
x1 = 0.005	–	–	0.7315
x1 = 0.03	2.395	1.775	–

O=CN1CCOCC1 + Brc1ccccc1
viscosity [mPa·s], 101 kPa
Conditions	x1 = 0.1046	x1 = 0.2081	x1 = 0.3106	x1 = 0.412	x1 = 0.5124	x1 = 0.6119	x1 = 0.7103	x1 = 0.8078	x1 = 0.9044
303.15 K	1.051	1.188	1.392	1.666	2.029	2.502	3.141	3.952	5.052
308.15 K	1.002	1.119	1.297	1.538	1.858	2.274	2.809	3.511	4.419
313.15 K	0.953	1.057	1.22	1.442	1.727	2.105	2.585	3.211	4.012

CC(C)NC(C)C + CC(C)O
viscosity [mPa·s], 100 kPa
Conditions	298.15 K	303.15 K	308.15 K
x1 = 0.0499	1.789	1.565	1.397
x1 = 0.1033	1.565	1.393	1.253
x1 = 0.1405	1.437	1.28	1.153
x1 = 0.2062	1.245	1.108	1.004
x1 = 0.2498	1.123	1.012	0.922
x1 = 0.303	1.003	0.904	0.825
x1 = 0.4121	0.809	0.735	0.677
x1 = 0.4955	0.698	0.639	0.593
x1 = 0.5984	0.592	0.551	0.513
x1 = 0.6974	0.52	0.498	0.466
x1 = 0.7902	0.468	0.447	0.421
x1 = 0.8632	0.434	0.419	0.398
x1 = 0.9067	0.412	0.401	0.382
x1 = 0.9459	0.397	0.388	0.3694
